To fix the notation:
B1: interleukin 1-α: interleukin 1-α (protein, UniProt P01583 113-271, looked up)
Interleukin-1 alpha: SAPFSFLSNVKYNFMRIIKYEFILNDALNQSIIRANDQYLTAAALHNLDEAVKFDMGAYKSSKDDAKITVILRISKTQLYVTAQDEDQPVLLKEMPEIPKTITGSETNLLFFWETHGTKNYFTSVAHPNLFIATKQDYWVCLAGGPPSITDFQILENQA

Starred links: 1 amine or outer side, 2 acyl side, 3 side chain; linkers in the order of their positions; H or OH if unused. Positions of bridges follow the written chain, without caps; N, C: chain ends. Non-standard residues stand in square brackets, D forms with d. Residues, ends and D or L forms follow the SMILES beside them. Chains are numbered I, II in the order given. Actinocin(9to1) = Cc1c2oc3c(C)ccc(C(=O)[*:1])c3nc-2c(C(=O)[*:2])c(N)c1=O; NMeV = CN[C@H](C(=O)O)C(C)C; Nle = CCCC[C@H](N)C(=O)O; Sar = CNCC(=O)O

One experiment has as its system ERCC1.
Assay: not given
The conditions noted are these: human ovarian cancer cells after cisplatin exposure; cited from earlier work.
Regarding `Cc1cc(C)c(/C=C2\C(=O)Nc3ccccc32)[nH]1` [SU5416], the “effect on ERCC1 up-regulation” value was “blunted ERCC1 up-regulation”. For the molecule `Cc1c2oc3c(C)ccc(C(=O)N[C@@H]4C(=O)N[C@H](C(C)C)C(=O)N5CCC[C@H]5C(=O)N(C)CC(=O)N(C)[C@@H](C(C)C)C(=O)O[C@@H]4C)c3nc-2c(C(=O)N[C@@H]2C(=O)N[C@H](C(C)C)C(=O)N3CCC[C@H]3C(=O)N(C)CC(=O)N(C)[C@@H](C(C)C)C(=O)O[C@@H]2C)c(N)c1=O` [actinomycin D] (I: T[dV]P[Sar][NMeV] / II: T[dV]P[Sar][NMeV]; ester I:1-I:C, II:1-II:C; linker I:N-II:N via Actinocin(9to1)), the “effect on ERCC1 up-regulation” value is recorded as “blunted ERCC1 up-regulation”.

As for `[Cr]` [chromium], the “effect on ERCC1 up-regulation” value is “blunted ERCC1 up-regulation”. For `CC(=O)N[C@@H](CSC(=O)[C@]1([C@@H](O)C(C)C)NC(=O)[C@H](C)[C@@H]1O)C(=O)O` [lactacystin], the “effect on ERCC1 up-regulation” value is on record as “blunted ERCC1 up-regulation”. Take `[Pt]` [platinum]: the “effect on ERCC1 up-regulation” value is “blunted ERCC1 up-regulation”.

Regarding `CCCC[C@@H](C=O)NC(=O)[C@H](CC(C)C)NC(=O)[C@H](CC(C)C)NC(C)=O` [N-acetyl-leucyl-leucyl-norleucinal] (Ac-Leu-Leu-[Nle]-aldehyde), the “effect on ERCC1 up-regulation” value is reported as “blunted ERCC1 up-regulation”.

In the case of `C[C@@H]1C[C@@H]([C@H](O)CC2CC(=O)NC(=O)C2)C(=O)[C@@H](C)C1` [cycloheximide], the “effect on ERCC1 up-regulation” value was “blunted ERCC1 up-regulation”. Turning to `CC[C@H](C)[C@@H]1NC(=O)CNC(=O)[C@@H]2Cc3c([nH]c4cc(O)ccc34)[S+]([O-])C[C@@H](NC(=O)CNC1=O)C(=O)N[C@@H](CC(N)=O)C(=O)N1C[C@H](O)C[C@H]1C(=O)N[C@@H]([C@@H](C)[C@@H](O)CO)C(=O)N2` (stereo in doubt) [α-amanitin], the “effect on ERCC1 up-regulation” value was “blunted ERCC1 up-regulation”.

On to `CO[C@H]1[C@@H](OC)C[C@H](C)[C@@H](OC)C2=CC(=O)C=C(NC(=O)/C(C)=C/C=C\[C@H](OC)[C@@H](OC(N)=O)/C(C)=C/[C@@H]1C)C2=O` [herbimycin A], for which the “effect on ERCC1 up-regulation” value is on record as “blunted ERCC1 up-regulation”. Turning to B1, the “effect on ERCC1 up-regulation” value is “blunted ERCC1 up-regulation”.

For another experiment, the system named is OPN promoter. Description: OPN promoter luciferase reporter assay in melanoma cell lines. Format: cell-based, human. The following applies: MDA-MB-435, MCC012A, MCC012F. The method, then:
Empty pGL3 vector was used as control. Hedgehog ligands were added to the well 6 h prior to harvesting the cells (approximately 33 hr of initiation of transfection) for assay. Readings were normalized to total protein content. Each parameter was studied in triplicate and the experiment repeated at least 3 times. The data are represented as percent luciferase activity, which was derived as a percent of the relative light units in treated groups compared with the untreated groups.
For `C[C@H]1CC[C@]2(NC1)O[C@H]1C[C@H]3[C@@H]4CC[C@H]5C[C@@H](O)CC[C@]5(C)[C@H]4CC[C@]3(C)[C@H]1[C@@H]2C` [tomatidine], the OPN promoter activity entry is reported as “had no effect on the promoter activity”.

Staying with this experiment, now noted: MDA-MB-435, MCC012A, MCC012F; listed as Tomatidine.
As for `C[C@H]1CC[C@]2(NC1)O[C@H]1C[C@H]3[C@@H]4CC[C@H]5C[C@@H](O)CC[C@]5(C)[C@H]4CC[C@]3(C)[C@H]1[C@@H]2C` [tomatidine], the OPN promoter activity result is reported as “had no effect on the promoter activity of OPN”.

(Values after patent US9464291B2, “Methods and compositions for the treatment of cancer” (University of South Alabama, priority 2012, dated 2016).)
